Data as given in article PMC6717788 (The Korean Journal of Physiology & Pharmacology : …, 2019).

Columns and labels:
[1] = target: T1, Slo3 (potassium channel subfamily U member 1, KCNU1) (Homo sapiens, UniProt A8MYU2); test: whole-cell patch clamp, HEK293 cells, […] single dose; assay type: cell-based; details: HEK293, read-out: % inhibition at 50 μM
T1 sequence (A8MYU2 1-1149): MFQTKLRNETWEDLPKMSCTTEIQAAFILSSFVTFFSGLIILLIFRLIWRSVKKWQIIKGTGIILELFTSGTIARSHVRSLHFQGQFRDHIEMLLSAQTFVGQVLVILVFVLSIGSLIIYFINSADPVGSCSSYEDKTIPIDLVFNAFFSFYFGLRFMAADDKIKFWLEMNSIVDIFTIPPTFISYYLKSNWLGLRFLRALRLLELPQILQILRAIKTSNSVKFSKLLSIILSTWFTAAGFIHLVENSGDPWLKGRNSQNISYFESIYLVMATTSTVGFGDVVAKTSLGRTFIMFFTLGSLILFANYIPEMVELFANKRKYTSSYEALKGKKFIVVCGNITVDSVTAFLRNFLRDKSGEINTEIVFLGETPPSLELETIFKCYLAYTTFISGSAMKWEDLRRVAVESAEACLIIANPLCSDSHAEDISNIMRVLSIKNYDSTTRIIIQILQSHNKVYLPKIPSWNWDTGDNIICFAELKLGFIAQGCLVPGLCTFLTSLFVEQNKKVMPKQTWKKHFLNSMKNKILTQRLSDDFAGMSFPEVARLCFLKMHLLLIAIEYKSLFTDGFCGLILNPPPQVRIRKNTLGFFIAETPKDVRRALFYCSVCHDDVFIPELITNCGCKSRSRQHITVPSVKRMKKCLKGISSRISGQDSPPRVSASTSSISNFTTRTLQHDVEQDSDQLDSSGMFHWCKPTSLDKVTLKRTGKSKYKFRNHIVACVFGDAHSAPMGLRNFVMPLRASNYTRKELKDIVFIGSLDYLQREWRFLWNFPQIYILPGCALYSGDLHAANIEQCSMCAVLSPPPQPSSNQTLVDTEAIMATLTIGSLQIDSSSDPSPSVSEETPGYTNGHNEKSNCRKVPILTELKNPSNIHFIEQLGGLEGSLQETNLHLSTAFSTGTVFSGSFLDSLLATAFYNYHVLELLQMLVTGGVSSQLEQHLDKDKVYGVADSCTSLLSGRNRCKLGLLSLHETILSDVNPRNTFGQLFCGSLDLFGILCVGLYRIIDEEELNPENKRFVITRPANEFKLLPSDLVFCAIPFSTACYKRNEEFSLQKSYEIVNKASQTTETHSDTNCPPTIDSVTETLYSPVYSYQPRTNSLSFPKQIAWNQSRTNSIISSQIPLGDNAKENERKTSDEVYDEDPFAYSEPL
T1 sequence (Q8N7C0 24-313 partner): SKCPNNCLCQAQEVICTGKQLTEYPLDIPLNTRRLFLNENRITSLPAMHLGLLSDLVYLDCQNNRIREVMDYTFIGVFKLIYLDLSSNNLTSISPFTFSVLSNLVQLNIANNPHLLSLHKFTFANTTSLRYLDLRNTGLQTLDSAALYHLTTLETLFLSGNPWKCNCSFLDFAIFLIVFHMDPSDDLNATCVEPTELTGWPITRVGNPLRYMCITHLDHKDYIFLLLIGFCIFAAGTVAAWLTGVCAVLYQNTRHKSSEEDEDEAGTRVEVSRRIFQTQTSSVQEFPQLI

[2] = target: T1, Slo3 (potassium channel subfamily U member 1, KCNU1); test: whole-cell patch clamp, HEK293 cells, dose response; assay type: cell-based

inhibition at 50 µM [1] [%]	Compound	EC50 [2] [µM]
42.1 ± 2.16	O=c1c(O)c(-c2ccc(O)cc2O)oc2cc(O)cc(O)c12 [morin]	–
53.5 ± 3.15	O=c1cc(-c2ccc(O)c(O)c2)oc2cc(O)cc(O)c12 [luteolin]	–
–	O=c1c(O)c(-c2ccc(O)c(O)c2)oc2cc(O)cc(O)c12 [quercetin]	11.3
